Results published in patent US9776962B2, “Aromatic compounds with GPR40 agonistic activity” (TAKEDA PHARMACEUTICAL COMPANY LIMITED, priority 2013, dated 2017).

What follows are compounds tested against T1, human GPR40 (Homo sapiens, UniProt O14842) (assay: Evaluation of human GPR40 agonist activity with increase in intracellular Ca2+ concentration as an index (FLIPR)). Conditions: test compound 1 μM; CHO(dhfr−) cells stably expressing human GPR40; 100% = 10 μM compound of Example 153, 0% = DMSO.
T1 construct: expressed in transfected cells
T1 sequence (O14842 whole entry): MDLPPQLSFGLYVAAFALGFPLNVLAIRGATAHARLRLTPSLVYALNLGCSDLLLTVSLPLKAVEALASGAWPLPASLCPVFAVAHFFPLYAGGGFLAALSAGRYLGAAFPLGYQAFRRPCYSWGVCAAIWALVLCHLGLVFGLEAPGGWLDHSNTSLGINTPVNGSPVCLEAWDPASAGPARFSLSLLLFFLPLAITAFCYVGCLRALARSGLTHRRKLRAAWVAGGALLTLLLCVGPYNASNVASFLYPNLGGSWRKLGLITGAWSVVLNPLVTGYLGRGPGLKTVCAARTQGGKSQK
Assay type: cell-based
In short: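 CHO(dhfr−) cells stably expressing full-length human GPR40 were loaded with Ca2+ probe for 1 h at room temperature, then given test compound at 1 μM final. Fluorescence was followed on FLIPR, with activity scaled to a reference agonist at 10 μM (100%) and DMSO (0%).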
With `Cc1cccc(N(CC(C)(C)C)C(=O)c2ccc(S(C)(=O)=O)cc2N2CCC(COc3cc(C(CC(=O)O)C4CC4)ccn3)CC2)n1` (centres unmarked) [Example 264, 3-cyclopropyl-3-(2-((1-(2-((2,2-dimethylpropyl)(6-methylpyridin-2-yl)carbamoyl)-5-(methylsulfonyl)phenyl)piperidin-4-yl)methoxy)pyridin-4-yl)propanoic acid] the activation at 1 µM was 52%. `Cc1cccc(N(CC(C)(C)C)C(=O)c2ccc(O)cc2N2CCC(COc3cc(C(CC(=O)O)C4CC4)ccn3)CC2)n1` (centres unmarked) [Example 259, 3-cyclopropyl-3-(2-((1-(2-((2,2-dimethylpropyl)(6-methylpyridin-2-yl)carbamoyl)-5-hydroxyphenyl)piperidin-4-yl)methoxy)pyridin-4-yl)propanoic acid] was tested, and the activation at 1 µM was 77%. For `COc1ccc(C(=O)N(C)C2CCN(CC(F)(F)F)CC2)c(N2CCC(COc3cc(C(CC(=O)O)C4CC4)ccn3)CC2)c1` (centres unmarked) [Example 194, 3-cyclopropyl-3-(2-((1-(5-methoxy-2-(methyl(1-(2,2,2-trifluoroethyl)piperidin-4-yl)carbamoyl)phenyl)piperidin-4-yl)methoxy)pyridin-4-yl)propanoic acid], the activation at 1 µM was 77%. `COc1ccc(C(=O)N(CC(C)(C)C#N)c2ccccn2)c(N2CCC(COc3cc(C(CC(=O)O)C4CC4)ccn3)CC2)c1` (centres unmarked) [Example 134, 3-(2-((1-(2-((2-cyano-2-methylpropyl)(pyridin-2-yl)carbamoyl)-5-methoxyphenyl)piperidin-4-yl)methoxy)pyridin-4-yl)-3-cyclopropylpropanoic acid] was tested, and the activation at 1 µM was 84%. `COc1ccc(C(=O)N(CC(F)(F)F)c2ccnc(C)n2)c(N2CCC(COc3cc(C(CC(=O)O)C4CC4)ccn3)CC2)c1` (centres unmarked) [Example 239, 3-cyclopropyl-3-(2-((1-(5-methoxy-2-((2-methyl-pyrimidin-4-yl) (2,2,2-trifluoroethyl)carbamoyl)-phenyl)piperidin-4-yl)methoxy)pyridin-4-yl)propanoic acid] gave an activation at 1 µM of 100%. `COc1cc(N2CCC(COc3cc(C(CC(=O)O)C4CC4)ccn3)CC2)c(C(=O)N(CC(C)(C)C)c2cccc(C)n2)cn1` (centres unmarked) [Example 255, 3-cyclopropyl-3-(2-((1-(5-((2,2-dimethylpropyl)(6-methylpyridin-2-yl)carbamoyl)-2-methoxypyridin-4-yl)piperidin-4-yl)methoxy)pyridin-4-yl)propanoic acid] was tested, and the activation at 1 µM was 103%. With `COc1ccc(C(=O)N(CC(F)(F)C(F)(F)F)c2ncccn2)c(N2CCC(COc3cc(C(CC(=O)O)C4CC4)ccn3)CC2)c1` (centres unmarked) [Example 170, 3-cyclopropyl-3-(2-((1-(5-methoxy-2-((2,2,3,3,3-pentafluoropropyl)(pyrimidin-2-yl)carbamoyl)phenyl)piperidin-4-yl)methoxy)pyridin-4-yl)propanoic acid] the activation at 1 µM was 104%. `COc1ccc(C(=O)N(CC(C)(C)C)c2nc(C)ccc2F)c(N2CCC(COc3cc(C(CC(=O)O)C4CC4)ccn3)CC2)c1` (centres unmarked) [Example 234, 3-cyclopropyl-3-(2-((1-(2-((2,2-dimethylpropyl) (3-fluoro-6-methylpyridin-2-yl)carbamoyl)-5-methoxyphenyl)piperidin-4-yl)methoxy)pyridin-4-yl)propanoic acid] was tested, and the activation at 1 µM was 97%. For `COc1ccc(C(=O)N(CC2CC2)c2cc(C)ccn2)c(N2CCC(COc3cc(C(CC(=O)O)C4CC4)ccn3)CC2)c1` (centres unmarked) [Example 125, 3-cyclopropyl-3-(2-((1-(2-((cyclopropylmethyl)(4-methylpyridin-2-yl)carbamoyl)-5-methoxyphenyl)piperidin-4-yl)methoxy)pyridin-4-yl)propanoic acid], the activation at 1 µM was 95%. `COCC(C)(C)CN(C(=O)c1ccc(OC)cc1N1CCC(COc2cc(C(CC(=O)O)C3CC3)ccn2)CC1)c1ccccn1` (centres unmarked) [Example 155, 3-cyclopropyl-3-(2-((1-(5-methoxy-2-((3-methoxy-2,2-dimethylpropyl)(pyridin-2-yl)carbamoyl)phenyl)piperidin-4-yl)methoxy)pyridin-4-yl)propanoic acid] was tested, and the activation at 1 µM was 96%. Work on `COc1cc(N2CCC(COc3cc(C(CC(=O)O)C4CC4)ccn3)CC2)c(C(=O)N(CC(F)(F)F)c2ccccn2)cn1` (centres unmarked) [Example 256, 3-cyclopropyl-3-(2-((1-(2-methoxy-5-(pyridin-2-yl(2,2,2-trifluoroethyl)carbamoyl)pyridin-4-yl)piperidin-4-yl)methoxy)pyridin-4-yl)propanoic acid] yielded an activation at 1 µM of 96%. With `COc1ccc(C(=O)N(CC2CC2(F)F)c2ccccn2)c(N2CCC(COc3cc(C(CC(=O)O)C4CC4)ccn3)CC2)c1` (centres unmarked) [Example 139, 3-cyclopropyl-3-(2-((1-(2-(((2,2-difluorocyclopropyl)methyl)(pyridin-2-yl)carbamoyl)-5-methoxyphenyl)piperidin-4-yl)methoxy)pyridin-4-yl)propanoic acid] the activation at 1 µM was 96%. `COc1ccc(C(=O)N(CC(C)(C)C)c2cncc(C)c2)c(N2CCC(COc3cc(C(CC(=O)O)C4CC4)ccn3)CC2)c1` (centres unmarked) [Example 231, 3-cyclopropyl-3-(2-((1-(2-((2,2-dimethylpropyl) (5-methylpyridin-3-yl)carbamoyl)-5-methoxyphenyl)piperidin-4-yl)methoxy)pyridin-4-yl)propanoic acid] showed an activation at 1 µM of 92%. Compound `COc1ncc(C(=O)N(CC(C)(C)C)c2cccc(C)n2)c(N2CCC(COc3cc(C(CC(=O)O)C4CC4)ccn3)CC2)n1` (centres unmarked) [Example 287, 3-cyclopropyl-3-(2-((1-(5-((2,2-dimethylpropyl) (6-methylpyridin-2-yl)carbamoyl)-2-methoxypyrimidin-4-yl)piperidin-4-yl)methoxy)pyridin-4-yl)propanoic acid] has an activation at 1 µM of 82%. With `COc1ccc(C(=O)N(CC(F)(F)F)c2ccccn2)c(N2CCC(COc3cc(C(CC(=O)O)C4CC4)ccn3)CC2)c1` (centres unmarked) [Example 116, 3-cyclopropyl-3-(2-((1-(5-methoxy-2-(pyridin-2-yl(2,2,2-trifluoroethyl)carbamoyl)phenyl)piperidin-4-yl)methoxy)pyridin-4-yl)propanoic acid] the activation at 1 µM was 101%. For `COc1ccc(C(=O)N(C)CC(C)C)c(N2CCC(COc3cccc(C(CC(=O)O)C4CC4)c3)CC2)c1` (centres unmarked) [Example 1, 3-cyclopropyl-3-(3-((1-(5-methoxy-2-(methyl(2-methylpropyl)carbamoyl)phenyl)piperidin-4-yl)methoxy)phenyl)propanoic acid], the activation at 1 µM was 97%. `Cc1ccc(C(=O)N(CC(C)(C)C)c2cccc(C)n2)c(N2CCC(COc3cc(C(CC(=O)O)C4CC4)ccn3)CC2)c1` (centres unmarked) [Example 258, 3-cyclopropyl-3-(2-((1-(2-((2,2-dimethylpropyl)(6-methylpyridin-2-yl)carbamoyl)-5-methylphenyl)piperidin-4-yl)methoxy)pyridin-4-yl)propanoic acid] showed an activation at 1 µM of 94%. `COc1ccc(C(=O)N(c2ccccn2)C2CCC2)c(N2CCC(COc3cc(C(CC(=O)O)C4CC4)ccn3)CC2)c1` (centres unmarked) [Example 151, 3-(2-((1-(2-(cyclobutyl(pyridin-2-yl)carbamoyl)-5-methoxyphenyl)piperidin-4-yl)methoxy)pyridin-4-yl)-3-cyclopropylpropanoic acid] gave an activation at 1 µM of 87%. Work on `COc1ccc(C(=O)N(CC(C)(C)C)c2ccnc(C)n2)c(N2CCC(COc3cc(C(CC(=O)O)C4CC4)ccn3)CC2)c1` (centres unmarked) [Example 229, 3-cyclopropyl-3-(2-((1-(2-((2,2-dimethylpropyl) (2-methylpyrimidin-4-yl)carbamoyl)-5-methoxyphenyl)piperidin-4-yl)methoxy)pyridin-4-yl)propanoic acid] yielded an activation at 1 µM of 101%. `COc1ccc(C(=O)N(CC(F)(F)F)c2cc(C)ncn2)c(N2CCC(COc3cc(C(CC(=O)O)C4CC4)ccn3)CC2)c1` (centres unmarked) [Example 240, 3-cyclopropyl-3-(2-((1-(5-methoxy-2-((6-methylpyrimidin-4-yl)-(2,2,2-trifluoroethyl)-carbamoyl)phenyl)-piperidin-4-yl)methoxy)-pyridin-4-yl)propanoic acid] was tested, and the activation at 1 µM was 99%. With `COc1ccc(C(=O)N(CC(C)C)c2ccccn2)c(N2CCC(COc3cccc(C(CC(=O)O)C4CC4)c3)CC2)c1` (centres unmarked) [Example 62, 3-cyclopropyl-3-(3-((1-(5-methoxy-2-((2-methylpropyl)(pyridin-2-yl)carbamoyl)phenyl)piperidin-4-yl)methoxy)phenyl)propanoic acid] the activation at 1 µM was 101%. `COc1ccc(C(=O)N(CC(C)(C)C)C2CCCN(CC(F)(F)F)C2)c(N2CCC(COc3cc(C(CC(=O)O)C4CC4)ccn3)CC2)c1` (centres unmarked) [Example 233, 3-cyclopropyl-3-(2-((1-(2-((2,2-dimethylpropyl) (1-(2,2,2-trifluoroethyl)piperidin-3-yl)carbamoyl)-5-methoxyphenyl)piperidin-4-yl)methoxy)pyridin-4-yl)propanoic acid] gave an activation at 1 µM of 85%. In the case of `COc1ccc(C(=O)NC2CCN(CC(F)(F)F)CC2)c(N2CCC(COc3cc(C(CC(=O)O)C4CC4)ccn3)CC2)c1` (centres unmarked) [Example 193, 3-cyclopropyl-3-(2-((1-(5-methoxy-2-((1-(2,2,2-trifluoroethyl)piperidin-4-yl)carbamoyl)phenyl)piperidin-4-yl)methoxy)pyridin-4-yl)propanoic acid], the activation at 1 µM was 39%.
